In patent publication US20210030870A1, “MODULATION OF P62 AND STING ACTIVITY” (priority 2018, published 2021):
“Also recorded” adds a separate entry of the source.

Assays:
[1] = tested on: STING-pathway; test: Functional type I IFN assay (HEK-Blue IFN-α/β reporter) on supernatants of peptide-pretreated PBMCs; format: cell-based, human; details: for type I IFN: PBMCs, peptide pre-activation (25 μg/ml), co-stimulation with HT-DNA
[2] = tested on: STING-pathway; test: Functional type I IFN assay on supernatants of peptide-pretreated THP1 cells; format: cell-based, human; details: peptide pre-activation (10 μg/ml), co-stimulation with HT-DNA
[3] = tested on: STING-pathway; test: TNF-α ELISA on supernatants of peptide-pretreated PBMCs stimulated with STING agonists; format: cell-based; details: human primary PBMCs, peptide pre-activation (25 μg/ml, 1 hour), co-stimulation with cGAMP or HT-DNA, supernatants after 20 hours
[4] = tested on: STING-pathway; test: CXCL10 ELISA on supernatants of peptide-pretreated PMA-differentiated THP1 cells; format: cell-based; details: human PMA-differentiated THP1 cells, peptide 10 μg/ml, HT-DNA treatment; listed as SEQ ID NO: 9
[5] = tested on: DNA-cGAS STING pathway; test: Type I IFN bioassay, THP1 cells stimulated with DNA or polyIC with/without PEP302; format: cell-based, human
Protocol: Bioactive human type I IFN was measured on cell supernatants by use of HEK-Blue™ IFN-a/b cells as reporter cells according to the manufacturer instructions (InvivoGen).

[6] = tested on: DNA-cGAS STING pathway; test: CXCL10 ELISA, THP1 cells with PEP302; format: cell-based, human; details: DNA stimulation
Protocol: Protein levels of the cytokines CXCL10 and TNF-α in supernatants, were measured using ELISA kits from R and D Systems (CXCL10; DY266) and (TNF-α; DY210) following the manufacturer's instructions.

[7] = tested on: STING; test: Western blotting of THP1 cells treated with PEP302; format: cell-based, human
Protocol: Whole-cell extracts or immunoprecipitation samples were analyzed by immunoblotting. Samples were diluted in XT sample buffer and XT reducing agent and ran on a SDS—PAGE (Criterion™ TGX™). Trans-Blot Turbo™ Transfer System was used for the transfer of proteins to PVDF membranes (all reagents Bio-Rad). The membrane was blocked in 5% Difco™ skim milk (BD) or 5% bovine serum albumin (BSA) (Sigma). For detection of STING dimerization, samples were prepared for electrophoresis using non-reducing RIPA lysis buffer with 0.2% SDS and complete mini inhibitor (Sigma). The antibodies used for immunoblotting were as follows: rabbit anti-pSTING (S366) (Cell Signaling Technology, #85735), rabbit anti-pTBK1 (Ser172) (Cell Signaling, D52C2/#5483), rabbit anti-phospho p62 (Cell Signalling), Guinea pig anti-p62 (Progen), rabbit anti-STING (Cell Signalling) and mouse anti-b-actin (Abcam, AC-15/ab49900).

[8] = THP1 cells treated with peptide
[9] = THP1 cells, after DNA and cGAMP stimulation, Western blotting

Q: What does the source list for “DLCSVCEGKGLHRGHTKLAFGRKKRRQRRRPQ (listed as Homo sapiens) [PEP307, ZZ domain fragment peptide of human P62 C-terminally conjugated to TAT]”?
A: type I IFN [1]: significant suppression; type I IFN ([1]; listed as SEQ ID NO: 10): capable of reducing; type I IFN [2]: significant suppression; type I IFN ([2]; listed as SEQ ID NO: 10): capable of reducing

Q: How did the “cytokine response of TNF-alpha” value [3] turn out when “EELTMAMSYVKDDIFRIYIKGRKKRRQRRRPQ (listed as Homo sapiens) [PEP305, PB1 domain fragment peptide of human P62 C-terminally conjugated to TAT]” was run?
A: enhance

Q: What about the “cytokine response of TNF-alpha” value ([3]; listed as SEQ ID NO: 9) of the same sequence?
A: very efficient in increasing

Q: And the “type I Interferon” value ([1]; human primary PBMCs, peptide pre-activation (25 μg/ml, 1 hour), co-stimulation with cGAMP or HT-DNA)?
A: suppress

Q: And the CXCL10 expression [4]?
A: very efficient in increasing; also recorded: increase

Q: “PGPCERLLSRVAALFPALRP GRKKRRQRRRPQ (PGPCERLLSRVAALFPALRPGRKKRRQRRRPQ; listed as Homo sapiens) [PEP302, PB1 domain fragment peptide of human P62]” was tested. Which “pathway specificity of type I IFN inhibition (DNA versus polyIC stimulation)” value ([5]; THP1 cells stimulated with DNA or polyIC with/without peptide) did it give?
A: may specifically target the DNA-cGAS STING pathway and not the polylC pathway

Q: And the “DNA-activated IFN (type I IFN bioassay)” value ([5]; THP1 cells, DNA stimulation)?
A: reduces

Q: And the “DNA-STING-induced CXCL10 production” value [6]?
A: reduces; also recorded: can inhibit

Q: What about the STING dimerization [7, 8] of the same sequence?
A: may induce

Q: And the “autophagy (LC3 turnover)” value [7, 8]?
A: may induce; also recorded: seems to constitutively induce

Q: What about the p62 dimerization [7, 8] of the same sequence?
A: may induce; also recorded: induce p62 dimerization

Q: What about the “ubiquitination of STING” value ([7]; THP1 cells treated with peptide alone) of the same sequence?
A: may also induce; also recorded: potentially ubiquitination of STING

Q: What about the “phosphorylation of TBK1” value [7, 9] of the same sequence?
A: significantly reduced; also recorded: inhibit/reduce

Q: And the “phosphorylation of p62” value [7, 9]?
A: significantly reduced; also recorded: inhibit/reduce

Q: What about the “phosphorylation of STING” value ([7]; THP1 cells, after DNA stimulation, Western blotting) of the same sequence?
A: can inhibit; also recorded: may inhibit

Q: And the “phosphorylation of STING (phospho-STING)” value ([7]; THP1 cells, after cGAMP stimulation, Western blotting)?
A: significantly reduce; also recorded: may inhibit

Q: Which results are given for “SLTVKAYLLGKEDAAREIRRGRKKRRQRRRPQ (listed as Homo sapiens) [PEP300, N-terminal fragment peptide of human P62 C-terminally conjugated to TAT]”?
A: type I IFN [1]: significant suppression; type I IFN ([1]; listed as SEQ ID NO: 8): capable of reducing; type I IFN [2]: significant suppression; type I IFN ([2]; listed as SEQ ID NO: 8): capable of reducing
